{"source": "BindingDB's records for doi:10.1073/pnas.0708800104", "about": "(University of Oxford, 2007)", "key": {"[1]": {"test": "Inhibition of IGF1R-dependent tumor cell growth in human MCF7 cells"}, "[2]": {"biological_target": "Proto-oncogene tyrosine-protein kinase Src (Homo sapiens) (UniProt P12931)", "sequence (P12931 whole entry, looked up)": "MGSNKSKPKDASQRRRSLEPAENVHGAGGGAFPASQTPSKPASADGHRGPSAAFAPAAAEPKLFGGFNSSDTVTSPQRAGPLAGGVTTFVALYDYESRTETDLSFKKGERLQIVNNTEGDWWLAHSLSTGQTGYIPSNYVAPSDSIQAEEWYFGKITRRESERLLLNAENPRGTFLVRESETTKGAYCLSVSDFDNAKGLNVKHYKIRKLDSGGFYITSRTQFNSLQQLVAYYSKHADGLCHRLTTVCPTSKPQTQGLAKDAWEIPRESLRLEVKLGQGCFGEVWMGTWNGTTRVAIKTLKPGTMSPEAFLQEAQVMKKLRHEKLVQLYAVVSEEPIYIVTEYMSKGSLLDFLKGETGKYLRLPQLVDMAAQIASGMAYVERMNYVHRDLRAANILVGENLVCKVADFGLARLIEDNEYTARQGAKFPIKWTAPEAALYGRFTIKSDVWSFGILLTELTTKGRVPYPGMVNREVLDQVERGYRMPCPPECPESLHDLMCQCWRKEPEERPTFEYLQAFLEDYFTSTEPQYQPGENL", "test": "Inhibition of cSrc"}, "[3]": {"test": "Inhibition of Cdk5"}}}
{"molecule": "COc1ccc(Cl)cc1NC(=O)Nc1cc(C)nc2ccccc12", "note": "[TCMDC-125497]", "values": [{"measurement": "IC50", "setting": "[1]", "value": 8, "unit": "µM"}]}
{"molecule": "CCN(CC)CCCCNc1ncc2cc(-c3cc(OC)cc(OC)c3)c(NC(=O)NC(C)(C)C)nc2n1", "values": [{"measurement": "IC50", "setting": "[2]", "value": 19.8, "unit": "µM"}]}
{"molecule": "O=C1Nc2ccccc2/C1=C\\c1c(Cl)[nH]c2ccccc12", "values": [{"measurement": "IC50", "setting": "[3]", "value": 25, "unit": "µM"}]}
